Legend:
Experiment in all cases: KINOMEscan
Assay type in all cases: binding
Conditions in all cases: read-out: percent control
[1] = molecular target: ABL1(F317I)-phosphorylated (Homo sapiens (Human), UniProt P00519, F317I)
Source text: (§1) Example 2. In Vitro Kinase Selectivity Profiling of the Compounds of the Present Disclosure

ADCK4 = ADCK4 (Homo sapiens (Human), UniProt Q96D53)
Source text: as §1

AMPK-alpha2 = AMPK-alpha2 (Homo sapiens (Human), UniProt P54646)
Source text: as §1

AURKA = AURKA (Homo sapiens (Human), UniProt O14965)
Source text: as §1

BTK = BTK (Homo sapiens (Human), UniProt Q06187)
Source text: as §1

BUB 1 = BUB 1 (Homo sapiens (Human), UniProt O43683)
Source text: as §1

CDK3 = CDK3 (Homo sapiens (Human), UniProt Q00526)
Source text: as §1

CHEK1 = CHEK1 (Homo sapiens (Human), UniProt O14757)
Source text: as §1

CSF1R = CSF1R (Homo sapiens (Human), UniProt P07333)
Source text: as §1

CSNK1A1 = CSNK1A1 (Homo sapiens (Human), UniProt P48729)
Source text: as §1

CSNK1A1L = CSNK1A1L (Homo sapiens (Human), UniProt Q8N752)
Source text: as §1

FLT3(K663Q) = FLT3(K663Q) (Homo sapiens (Human), UniProt P36888, K663Q)
Source text: as §1

GRK2 = GRK2 (Homo sapiens (Human), UniProt P25098)
Source text: as §1

HASPIN = HASPIN (Homo sapiens (Human), UniProt Q8TF76)
Source text: as §1

IKK-epsilon = IKK-epsilon (Homo sapiens (Human), UniProt Q14164)
Source text: as §1

KIT(L576P) = KIT(L576P) (Homo sapiens (Human), UniProt P10721, L576P)
Source text: as §1

KIT(V559D, V654A) = KIT(V559D, V654A) (Homo sapiens (Human), UniProt P10721, V559D/V654A)
Source text: as §1

LCK = LCK (Homo sapiens (Human), UniProt P06239)
Source text: as §1

LTK = LTK (Homo sapiens (Human), UniProt P29376)
Source text: as §1

MEK5 = MEK5 (Homo sapiens (Human), UniProt Q13163)
Source text: as §1

NEK11 = NEK11 (Homo sapiens (Human), UniProt Q8NG66)
Source text: as §1

NEK4 = NEK4 (Homo sapiens (Human), UniProt P51957)
Source text: as §1

PCTK3 = PCTK3 (Homo sapiens (Human), UniProt Q07002)
Source text: as §1

PHKG2 = PHKG2 (Homo sapiens (Human), UniProt P15735)
Source text: as §1

PIK3CA = PIK3CA (Homo sapiens (Human), UniProt P42336)
Source text: as §1

PIK4CB = PIK4CB (Homo sapiens (Human), UniProt Q9UBF8)
Source text: as §1

PIM3 = PIM3 (Homo sapiens (Human), UniProt Q86V86)
Source text: as §1

PKMYT1 = PKMYT1 (Homo sapiens (Human), UniProt Q99640)
Source text: as §1

PKN1 = PKN1 (Homo sapiens (Human), UniProt Q16512)
Source text: as §1

PRKX = PRKX (Homo sapiens (Human), UniProt P51817)
Source text: as §1

PYK2 = PYK2 (Homo sapiens (Human), UniProt Q14289)
Source text: as §1

RIPK4 = RIPK4 (Homo sapiens (Human), UniProt P57078)
Source text: as §1

S6K1 = S6K1 (Homo sapiens (Human), UniProt P23443)
Source text: as §1

SRMS = SRMS (Homo sapiens (Human), UniProt Q9H3Y6)
Source text: as §1

STK39 = STK39 (Homo sapiens (Human), UniProt Q9UEW8)
Source text: as §1

TAOK1 = TAOK1 (Homo sapiens (Human), UniProt Q7L7X3)
Source text: as §1

TIE2 = TIE2 (Homo sapiens (Human), UniProt Q02763)
Source text: as §1

TSSK3 = TSSK3 (Homo sapiens (Human), UniProt Q96PN8)
Source text: as §1

YANK2 = YANK2 (Homo sapiens (Human), UniProt Q9NY57)
Source text: as §1

YES = YES (Homo sapiens (Human), UniProt P07947)
Source text: as §1

Sequence of CDK3 (Q00526 whole entry): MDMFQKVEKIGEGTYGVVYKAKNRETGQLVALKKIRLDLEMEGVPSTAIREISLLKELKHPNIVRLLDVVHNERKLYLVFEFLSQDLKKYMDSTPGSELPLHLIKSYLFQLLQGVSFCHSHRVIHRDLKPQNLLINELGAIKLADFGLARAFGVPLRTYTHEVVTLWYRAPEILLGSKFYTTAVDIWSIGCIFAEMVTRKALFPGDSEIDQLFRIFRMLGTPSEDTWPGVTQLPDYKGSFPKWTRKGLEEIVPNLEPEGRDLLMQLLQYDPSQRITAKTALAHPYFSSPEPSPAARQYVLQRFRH
Sequence of AMPK-alpha2 (P54646 whole entry): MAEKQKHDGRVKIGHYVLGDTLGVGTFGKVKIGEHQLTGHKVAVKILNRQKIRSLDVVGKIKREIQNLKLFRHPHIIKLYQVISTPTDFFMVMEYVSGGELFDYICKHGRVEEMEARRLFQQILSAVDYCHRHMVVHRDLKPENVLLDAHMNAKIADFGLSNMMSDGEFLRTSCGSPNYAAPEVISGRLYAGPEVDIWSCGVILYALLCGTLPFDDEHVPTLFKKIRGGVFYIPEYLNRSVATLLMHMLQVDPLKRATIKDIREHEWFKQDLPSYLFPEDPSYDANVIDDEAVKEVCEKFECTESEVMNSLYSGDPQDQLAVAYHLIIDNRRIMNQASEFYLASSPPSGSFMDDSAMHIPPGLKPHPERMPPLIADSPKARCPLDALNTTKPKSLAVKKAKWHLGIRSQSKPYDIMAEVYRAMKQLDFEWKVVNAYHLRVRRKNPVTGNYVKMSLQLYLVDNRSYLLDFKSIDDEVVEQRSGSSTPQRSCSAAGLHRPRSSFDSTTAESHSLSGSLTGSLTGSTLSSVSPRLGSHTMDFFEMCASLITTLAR
Sequence of ADCK4 (Q96D53 whole entry): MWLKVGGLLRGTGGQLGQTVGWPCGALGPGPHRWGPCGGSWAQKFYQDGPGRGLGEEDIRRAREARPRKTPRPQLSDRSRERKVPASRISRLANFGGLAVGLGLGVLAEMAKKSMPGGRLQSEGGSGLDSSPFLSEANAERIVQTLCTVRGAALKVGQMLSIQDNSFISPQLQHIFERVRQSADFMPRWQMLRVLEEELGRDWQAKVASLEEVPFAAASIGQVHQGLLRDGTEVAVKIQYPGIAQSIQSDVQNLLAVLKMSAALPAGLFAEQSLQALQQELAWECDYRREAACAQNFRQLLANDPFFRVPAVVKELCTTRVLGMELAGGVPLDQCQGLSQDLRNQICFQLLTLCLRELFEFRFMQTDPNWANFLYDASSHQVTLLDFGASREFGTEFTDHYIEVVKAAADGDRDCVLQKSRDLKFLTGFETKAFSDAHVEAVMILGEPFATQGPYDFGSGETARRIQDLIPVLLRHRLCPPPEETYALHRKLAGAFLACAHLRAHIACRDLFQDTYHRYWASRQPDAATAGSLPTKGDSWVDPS
Sequence of BUB 1 (O43683 whole entry): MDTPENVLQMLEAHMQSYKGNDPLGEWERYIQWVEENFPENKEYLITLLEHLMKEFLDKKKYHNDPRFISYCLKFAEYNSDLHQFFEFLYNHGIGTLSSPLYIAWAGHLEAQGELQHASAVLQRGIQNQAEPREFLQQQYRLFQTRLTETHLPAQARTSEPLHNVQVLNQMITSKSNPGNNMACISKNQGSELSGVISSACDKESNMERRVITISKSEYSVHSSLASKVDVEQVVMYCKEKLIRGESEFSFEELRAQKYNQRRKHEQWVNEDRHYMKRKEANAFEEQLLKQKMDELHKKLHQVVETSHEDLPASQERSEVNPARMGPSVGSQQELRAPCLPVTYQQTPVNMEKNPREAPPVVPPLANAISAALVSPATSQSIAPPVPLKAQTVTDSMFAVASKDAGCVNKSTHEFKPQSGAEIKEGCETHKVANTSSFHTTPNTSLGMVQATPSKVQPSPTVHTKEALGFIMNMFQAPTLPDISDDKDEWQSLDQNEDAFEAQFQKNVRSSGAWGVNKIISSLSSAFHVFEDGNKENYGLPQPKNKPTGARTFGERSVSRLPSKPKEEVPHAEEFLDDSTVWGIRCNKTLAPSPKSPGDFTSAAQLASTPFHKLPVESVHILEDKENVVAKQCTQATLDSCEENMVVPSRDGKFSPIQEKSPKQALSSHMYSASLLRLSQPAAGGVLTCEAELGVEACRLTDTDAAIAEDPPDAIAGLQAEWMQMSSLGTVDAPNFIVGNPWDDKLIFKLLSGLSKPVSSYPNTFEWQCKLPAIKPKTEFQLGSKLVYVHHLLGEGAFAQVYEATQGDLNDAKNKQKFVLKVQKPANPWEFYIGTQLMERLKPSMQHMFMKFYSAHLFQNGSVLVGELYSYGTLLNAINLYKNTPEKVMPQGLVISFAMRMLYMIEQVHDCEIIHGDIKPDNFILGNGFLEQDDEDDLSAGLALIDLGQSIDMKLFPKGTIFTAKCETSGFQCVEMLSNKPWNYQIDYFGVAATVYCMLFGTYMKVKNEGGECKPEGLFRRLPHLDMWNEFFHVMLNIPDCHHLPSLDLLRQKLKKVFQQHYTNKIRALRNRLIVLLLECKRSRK
Sequence of PIK3CA (P42336 whole entry): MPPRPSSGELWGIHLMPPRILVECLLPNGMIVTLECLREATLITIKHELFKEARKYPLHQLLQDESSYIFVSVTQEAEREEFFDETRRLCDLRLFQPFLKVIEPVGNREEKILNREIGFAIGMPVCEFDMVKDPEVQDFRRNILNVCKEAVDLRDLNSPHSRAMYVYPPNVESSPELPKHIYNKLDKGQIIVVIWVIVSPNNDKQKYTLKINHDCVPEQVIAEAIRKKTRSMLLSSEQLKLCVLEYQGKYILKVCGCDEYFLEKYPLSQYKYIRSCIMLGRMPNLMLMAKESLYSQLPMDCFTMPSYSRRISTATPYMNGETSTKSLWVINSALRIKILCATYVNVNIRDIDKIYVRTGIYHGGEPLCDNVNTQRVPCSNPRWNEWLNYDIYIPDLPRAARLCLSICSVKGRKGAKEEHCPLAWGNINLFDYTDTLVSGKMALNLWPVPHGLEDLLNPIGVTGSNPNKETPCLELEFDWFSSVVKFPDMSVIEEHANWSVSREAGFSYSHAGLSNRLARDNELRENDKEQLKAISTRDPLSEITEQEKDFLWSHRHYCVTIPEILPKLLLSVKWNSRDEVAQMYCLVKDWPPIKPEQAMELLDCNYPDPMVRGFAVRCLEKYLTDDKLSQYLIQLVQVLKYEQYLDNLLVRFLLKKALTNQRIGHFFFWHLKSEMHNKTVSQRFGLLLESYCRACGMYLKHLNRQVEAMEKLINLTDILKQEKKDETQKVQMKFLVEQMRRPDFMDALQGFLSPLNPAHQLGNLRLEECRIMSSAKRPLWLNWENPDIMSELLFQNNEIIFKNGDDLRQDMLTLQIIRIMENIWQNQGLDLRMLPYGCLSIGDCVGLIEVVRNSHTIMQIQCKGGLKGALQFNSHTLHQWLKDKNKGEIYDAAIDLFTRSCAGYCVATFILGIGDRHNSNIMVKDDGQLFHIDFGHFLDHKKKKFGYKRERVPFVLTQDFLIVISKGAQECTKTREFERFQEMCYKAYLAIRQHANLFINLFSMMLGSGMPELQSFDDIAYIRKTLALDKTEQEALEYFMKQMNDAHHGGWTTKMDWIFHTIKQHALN
Sequence of TAOK1 (Q7L7X3 whole entry): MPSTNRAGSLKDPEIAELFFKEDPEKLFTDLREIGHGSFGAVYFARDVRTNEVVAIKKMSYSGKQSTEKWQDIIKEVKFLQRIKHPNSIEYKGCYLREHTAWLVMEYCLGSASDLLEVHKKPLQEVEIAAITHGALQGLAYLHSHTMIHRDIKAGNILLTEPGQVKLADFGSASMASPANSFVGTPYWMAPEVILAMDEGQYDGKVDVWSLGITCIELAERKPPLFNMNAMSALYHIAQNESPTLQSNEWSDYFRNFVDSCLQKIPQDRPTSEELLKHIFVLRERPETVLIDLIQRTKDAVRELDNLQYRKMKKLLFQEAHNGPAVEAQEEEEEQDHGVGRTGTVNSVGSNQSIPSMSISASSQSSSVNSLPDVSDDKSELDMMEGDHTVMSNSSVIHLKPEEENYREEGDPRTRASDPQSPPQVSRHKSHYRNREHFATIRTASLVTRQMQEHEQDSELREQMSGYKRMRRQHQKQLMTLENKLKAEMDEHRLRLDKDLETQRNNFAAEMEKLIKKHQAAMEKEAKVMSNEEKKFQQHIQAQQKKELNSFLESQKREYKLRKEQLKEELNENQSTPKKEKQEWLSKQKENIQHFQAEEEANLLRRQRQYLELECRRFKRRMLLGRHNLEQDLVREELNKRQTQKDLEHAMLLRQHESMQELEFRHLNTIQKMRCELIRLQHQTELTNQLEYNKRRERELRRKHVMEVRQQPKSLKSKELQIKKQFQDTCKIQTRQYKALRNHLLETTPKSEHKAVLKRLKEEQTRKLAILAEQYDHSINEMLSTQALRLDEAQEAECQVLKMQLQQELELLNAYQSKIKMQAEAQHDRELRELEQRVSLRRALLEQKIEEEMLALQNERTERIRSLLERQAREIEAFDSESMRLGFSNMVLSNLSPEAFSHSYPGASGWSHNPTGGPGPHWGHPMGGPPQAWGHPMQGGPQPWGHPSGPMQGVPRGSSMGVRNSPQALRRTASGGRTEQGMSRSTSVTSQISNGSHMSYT
Sequence of LCK (P06239 whole entry): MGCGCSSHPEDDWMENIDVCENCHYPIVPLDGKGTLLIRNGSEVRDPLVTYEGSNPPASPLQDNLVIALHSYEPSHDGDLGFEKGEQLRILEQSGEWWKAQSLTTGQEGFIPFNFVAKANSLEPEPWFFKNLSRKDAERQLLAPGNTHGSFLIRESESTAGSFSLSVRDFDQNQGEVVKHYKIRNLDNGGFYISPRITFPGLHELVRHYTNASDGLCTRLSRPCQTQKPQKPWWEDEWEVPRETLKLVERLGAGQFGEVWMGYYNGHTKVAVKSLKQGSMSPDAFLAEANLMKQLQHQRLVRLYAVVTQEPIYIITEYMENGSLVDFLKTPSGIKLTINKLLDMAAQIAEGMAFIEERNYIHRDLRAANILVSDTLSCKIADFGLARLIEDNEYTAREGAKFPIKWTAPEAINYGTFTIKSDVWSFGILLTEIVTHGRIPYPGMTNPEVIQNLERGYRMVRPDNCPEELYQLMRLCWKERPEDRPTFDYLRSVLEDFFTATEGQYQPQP

| Compound | remaining binding at 1 µM [1] | remaining binding at 1 µM (ADCK4) | remaining binding at 1 µM (AMPK-alpha2) | remaining binding at 1 µM (AURKA) | remaining binding at 1 µM (BTK) | remaining binding at 1 µM (BUB 1) | remaining binding at 1 µM (CDK3) | remaining binding at 1 µM (CHEK1) | remaining binding at 1 µM (CSF1R) | remaining binding at 1 µM (CSNK1A1) | remaining binding at 1 µM (CSNK1A1L) | remaining binding at 1 µM (FLT3(K663Q)) | remaining binding at 1 µM (GRK2) | remaining binding at 1 µM (HASPIN) | remaining binding at 1 µM (IKK-epsilon) | remaining binding at 1 µM (KIT(L576P)) | remaining binding at 1 µM (KIT(V559D, V654A)) | remaining binding at 1 µM (LCK) | remaining binding at 1 µM (LTK) | remaining binding at 1 µM (MEK5) | further results |
| --- | --- | --- | --- | --- | --- | --- | --- | --- | --- | --- | --- | --- | --- | --- | --- | --- | --- | --- | --- | --- | --- |
| CCN1CCN(Cc2ccc(Nc3nc4ccc(Oc5ccnc(NC(C)=O)c5)cc4n3C)cc2C(F)(F)F)CC1 [Compound I-2] | 82% | 84% | 100% | 69% | 78% | 100% | 100% | 100% | 0.1% | 72% | 86% | 16% | 100% | 100% | 91% | 0.2% | 7.4% | 18% | 61% | 59% | remaining binding at 1 µM (NEK11): 100%; remaining binding at 1 µM (NEK4): 56%; remaining binding at 1 µM (PCTK3): 78%; remaining binding at 1 µM (PHKG2): 85%; remaining binding at 1 µM (PIK3CA): 90%; remaining binding at 1 µM (PIK4CB): 99%; remaining binding at 1 µM (PIM3): 93%; remaining binding at 1 µM (PKMYT1): 91%; remaining binding at 1 µM (PKN1): 57%; remaining binding at 1 µM (PRKX): 100%; remaining binding at 1 µM (PYK2): 33%; remaining binding at 1 µM (RIPK4): 86%; remaining binding at 1 µM (S6K1): 82%; remaining binding at 1 µM (SRMS): 67%; remaining binding at 1 µM (STK39): 62%; remaining binding at 1 µM (TAOK1): 77%; remaining binding at 1 µM (TIE2): 81%; remaining binding at 1 µM (TSSK3): 86%; remaining binding at 1 µM (YANK2): 100%; remaining binding at 1 µM (YES): 82% |
| CCN1CCN(Cc2ccc(Nc3nc4ccc(Oc5ccnc(NC(C)=O)c5)c(C)c4n3C)cc2C(F)(F)F)CC1 [Compound I-6, N-(4-(2-(4-((4-ethylpiperazin-1-yl)methyl)-3-(trifluoromethyl)phenylamino)-1,7-dimethyl-1H-benzo[d]imidazol-6-yloxy)pyridin-2-yl)acetamide] | 34% | 78% | 92% | 98% | 88% | 100% | 74% | 100% | 0.35% | 100% | 100% | 9.3% | 91% | 93% | 92% | 0% | 19% | 1.6% | 22% | 34% | remaining binding at 1 µM (NEK11): 61%; remaining binding at 1 µM (NEK4): 56%; remaining binding at 1 µM (PCTK3): 76%; remaining binding at 1 µM (PHKG2): 100%; remaining binding at 1 µM (PIK3CA): 91%; remaining binding at 1 µM (PIK4CB): 73%; remaining binding at 1 µM (PIM3): 86%; remaining binding at 1 µM (PKMYT1): 90%; remaining binding at 1 µM (PKN1): 100%; remaining binding at 1 µM (PRKX): 100%; remaining binding at 1 µM (PYK2): 8.8%; remaining binding at 1 µM (RIPK4): 97%; remaining binding at 1 µM (S6K1): 84%; remaining binding at 1 µM (SRMS): 38%; remaining binding at 1 µM (STK39): 93%; remaining binding at 1 µM (TAOK1): 46%; remaining binding at 1 µM (TIE2): 36%; remaining binding at 1 µM (TSSK3): 100%; remaining binding at 1 µM (YANK2): 91%; remaining binding at 1 µM (YES): 84% |

Reference: patent publication US12522583B2, “Benzimidazole derivatives and aza-benzimidazole derivatives as Janus kinase 2 inhibitors and uses thereof” (Dana-Farber Cancer Institute, Inc., priority 2018, dated 2026)
